Measured values taken from US7655465B2, “Methods for ex vivo propagation of somatic hair follicle stem cells” (Massachusetts Institute of Technology, priority 2004, dated 2010).

What was measured:
[1] = tested on: hair follicle epithelial cell cultures; assay: Limiting dilution cloning of hair follicle epithelial cells with and without purine supplementation; assay type: cell-based, mouse; details: for Cell clone efficiency, Cloning Condition Purine-supplemented (positive wells/total wells) / Cell clone efficiency, Cloning Condition Purine-free (positive wells/total wells): limiting dilution in 96 well plates; for Cell clone efficiency, Cloning Condition Purine-supplemented (positive wells/total wells): cloned in the presence of the purine used for initial outgrowth (400 uM); for Cell clone efficiency, Cloning Condition Purine-free (positive wells/total wells): cultures grown out with 400 uM purine, cloned without purine
Text: After outgrowth of the follicle epithelial cells, cultures were trypsinized to harvest cells for secondary culture. […] In this manner, purine metabolite-dependent clonal expansion was verified. […] Seventeen Xn-derived clones were transferred to 24-well plates, and 15 survived expansion to full scale cultures for cryo-preservation.

[2] = tested on: mouse whisker follicle epithelial cells; assay: Outgrowth and cell counts of purine-supplemented mouse whisker hair follicle cultures; assay type: cell-based; details: 400 uM purine
Text: Intact mouse whisker hair follicles were dissected from the skin under sterile conditions. The hair shaft was resected at its point of exit from the follicle. The intact follicle was then digested with trypsin, repeatedly washed, and filtered with a nylon mesh to remove external cells that adhere to the follicle capsule. The follicle was then opened with a single longitudinal incision and place in culture medium supplemented with 10% dialyzed fetal bovine serum, epidermal growth factor, and one of three different purine nucleoside metabolites (Hypoxyanthine, xanthosine, or xanthine) each supplemented to 400 uM.
Confluent primary cultures were transferred into to 25-cm^2 flasks. Seven days after this transfer, cell counts were performed before transferring cultures to 75-cm^2 flasks.

[3] = tested on: adult stem cell-enriched populations from skeletal muscle, pancreas or small intestinal epithelium of XPRT-transgenic mice; assay: Proliferation of adult stem cell-enriched populations explanted from XPRT-transgenic mice in xanthine-supplemented medium; assay type: cell-based, mouse; details: cells explanted from XPRT-transgenic mice
Text: We have generated transgenic mice ubiquitously expressing the xanthine phosphoribosyltransferase (XPRT) gene. We used the gene encoding for XPRT from the protozoan Leismania donovani. The XPRT enzyme can convert Xanthine into xanthosine monophosphate, the critical precursor for cellular guanine nucleotides. This enzyme has no mammalian counterpart and its substrate can enter the cell via ubiquitously expressed nucleobase transporters. Therefore, we can control the kinetics of adult stem cells expressing XPRT by supplementing with or depriving the culture medium of xanthine. In the presence of xanthine, XPRT-expressing cells increase their cellular level of guanine nucleotides independently of their normal endogenous pathway involving the conversion of inosine monophosphate to xanthosine monophosphate by the enzyme inosine monophosphate dehydrogenase.
We have generated transgenic mice ubiquitously expressing the XPRT gene under the control of the chicken β-actin/CMV enhancer. […] We have also shown that the culture of pancreatic cells from one of the transgenic lines gives rise to clusters of small cells with large nuclei. This feature is typical of ductal cells, from which a subset is believed to correspond to the pancreatic adult stem cells. […]

With O=c1[nH]cnc2nc[nH]c12 [Hx, hypoxanthine] the “Cell clone efficiency, Cloning Condition Purine-supplemented (positive wells/total wells)” value [1] was 6/480 and the “Cell clone efficiency, Cloning Condition Purine-free (positive wells/total wells)” value [1] was 0/96.

O=c1[nH]c(=O)c2[nH]cnc2[nH]1 [Xn, xanthine] was tested, and the “Promotion of enhanced growth of mouse whisker follicle epithelial cells (comparison of purines)” value [2] was “worked the best”, the “Order of reaching confluency of primary cultures” value ([2]; three hair follicles in one well of a 24-well plate) was “reached confluency first” and the “Proliferation in xanthine-supplemented culture medium” value [3] was “enhanced proliferation”. For the same compound, the “Yield of cell clones and dependence on the purine” value ([1]; limiting dilution cloning, summary of Table 1) was “significant number of cell clones with a marked dependence on Xn”, the “Cell clone efficiency, Cloning Condition Purine-supplemented (positive wells/total wells)” value [1] was 50/480 and the “Cell clone efficiency, Cloning Condition Purine-free (positive wells/total wells)” value [1] was 4/96.

In the case of O=c1[nH]c(=O)c2ncn([C@@H]3O[C@H](CO)[C@@H](O)[C@H]3O)c2[nH]1 [Xs, xanthosine], the “Cell clone efficiency, Cloning Condition Purine-supplemented (positive wells/total wells)” value [1] is reported as 1/480 and the “Cell clone efficiency, Cloning Condition Purine-free (positive wells/total wells)” value [1] is reported as 0/96.
